Experimental data as given in patent US20230139171A1 (SITA Information Networking Computing UK Limited, priority 2019, published 2023).

Legend:
Type in all cases: cell-based
human TLR8 = molecular target: T1, human TLR8 (Homo sapiens, UniProt Q9NR97); experiment: TLR8 inhibition reporter assay (HEK-Blue cells, SEAP reporter, R848 stimulation); conditions: HEK-Blue cells overexpressing human TLR8, SEAP reporter, R848 15.9 μM; read-out: TLR8 IC50
T1 construct: host or cells: HEK-Blue cells
T1 sequence (Q9NR97 27-1041): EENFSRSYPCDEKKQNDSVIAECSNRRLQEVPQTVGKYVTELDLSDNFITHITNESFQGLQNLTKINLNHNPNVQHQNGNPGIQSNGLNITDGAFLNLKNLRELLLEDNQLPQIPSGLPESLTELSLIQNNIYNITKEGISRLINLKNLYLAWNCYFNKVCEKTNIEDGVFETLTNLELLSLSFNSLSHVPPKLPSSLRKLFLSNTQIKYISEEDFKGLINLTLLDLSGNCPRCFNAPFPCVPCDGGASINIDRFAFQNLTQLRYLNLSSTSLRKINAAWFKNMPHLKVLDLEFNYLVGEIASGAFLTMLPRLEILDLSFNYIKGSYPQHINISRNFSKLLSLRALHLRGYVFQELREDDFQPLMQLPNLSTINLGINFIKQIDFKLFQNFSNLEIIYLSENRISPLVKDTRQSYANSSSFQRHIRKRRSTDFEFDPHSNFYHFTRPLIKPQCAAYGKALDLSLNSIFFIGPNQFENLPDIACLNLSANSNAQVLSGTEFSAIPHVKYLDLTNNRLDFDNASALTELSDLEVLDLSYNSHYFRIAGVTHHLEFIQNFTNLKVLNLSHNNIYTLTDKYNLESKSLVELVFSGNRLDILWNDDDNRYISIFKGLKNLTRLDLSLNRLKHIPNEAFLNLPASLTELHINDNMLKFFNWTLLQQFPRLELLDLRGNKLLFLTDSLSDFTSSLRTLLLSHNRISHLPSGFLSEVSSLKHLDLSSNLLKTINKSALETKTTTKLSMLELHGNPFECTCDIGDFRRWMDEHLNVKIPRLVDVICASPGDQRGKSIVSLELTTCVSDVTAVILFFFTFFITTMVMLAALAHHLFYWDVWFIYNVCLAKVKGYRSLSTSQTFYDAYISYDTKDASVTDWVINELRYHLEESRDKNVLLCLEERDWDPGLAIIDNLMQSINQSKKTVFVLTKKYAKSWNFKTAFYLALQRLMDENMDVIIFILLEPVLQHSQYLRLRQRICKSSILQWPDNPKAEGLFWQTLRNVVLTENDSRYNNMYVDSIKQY
Method in brief: (§1)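 Screening used HEK-Blue cells overexpressing one human TLR (7, 8 or 9) and an IFN-β minimal promoter–NF-κB/AP-1 SEAP construct. Stimulation lasted 22 h at 37 °C with receptor-specific agonist: gardiquimod, R848 or ODN2006 at 7.5 μM, 15.9 μM and 5 nM.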

human TLR9 = molecular target: T2, human TLR9 (Homo sapiens, UniProt Q9NR96); experiment: TLR9 inhibition reporter assay (HEK-Blue cells, SEAP reporter, ODN2006 stimulation); conditions: HEK-Blue cells overexpressing human TLR9, SEAP reporter, ODN2006 5 nM
T2 construct: host or cells: HEK-Blue cells
T2 sequence (Q9NR96 26-1032): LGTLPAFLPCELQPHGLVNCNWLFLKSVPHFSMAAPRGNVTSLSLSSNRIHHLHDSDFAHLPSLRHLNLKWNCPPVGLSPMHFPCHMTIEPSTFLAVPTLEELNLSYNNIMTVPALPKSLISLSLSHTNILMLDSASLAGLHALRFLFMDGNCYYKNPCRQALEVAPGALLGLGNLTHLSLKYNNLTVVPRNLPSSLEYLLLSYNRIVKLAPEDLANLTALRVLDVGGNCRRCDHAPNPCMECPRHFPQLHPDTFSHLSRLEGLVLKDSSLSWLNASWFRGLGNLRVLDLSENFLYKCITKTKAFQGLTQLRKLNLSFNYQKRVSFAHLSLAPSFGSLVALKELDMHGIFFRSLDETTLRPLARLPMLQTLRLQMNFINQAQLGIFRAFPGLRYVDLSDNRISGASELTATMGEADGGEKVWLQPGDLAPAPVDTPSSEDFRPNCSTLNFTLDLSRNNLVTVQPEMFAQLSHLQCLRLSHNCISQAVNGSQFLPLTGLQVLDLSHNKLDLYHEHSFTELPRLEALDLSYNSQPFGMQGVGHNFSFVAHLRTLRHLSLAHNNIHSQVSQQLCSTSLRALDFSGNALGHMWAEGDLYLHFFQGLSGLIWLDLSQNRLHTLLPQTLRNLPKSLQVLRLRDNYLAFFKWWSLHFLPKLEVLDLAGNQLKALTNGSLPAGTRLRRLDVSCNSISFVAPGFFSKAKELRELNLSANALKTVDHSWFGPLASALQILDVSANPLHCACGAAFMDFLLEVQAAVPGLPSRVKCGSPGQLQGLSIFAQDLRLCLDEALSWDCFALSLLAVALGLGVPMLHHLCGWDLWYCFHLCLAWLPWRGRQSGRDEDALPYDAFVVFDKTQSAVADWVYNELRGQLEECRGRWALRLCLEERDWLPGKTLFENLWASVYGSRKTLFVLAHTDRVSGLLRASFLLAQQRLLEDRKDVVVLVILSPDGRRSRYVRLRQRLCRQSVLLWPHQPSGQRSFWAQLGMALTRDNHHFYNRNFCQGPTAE
Method in brief: as §1

human TLR7 = molecular target: T3, human TLR7 (Homo sapiens, UniProt Q9NYK1); experiment: TLR7 inhibition reporter assay (HEK-Blue cells, SEAP reporter, gardiquimod stimulation); conditions: HEK-Blue cells overexpressing human TLR7, SEAP reporter, gardiquimod 7.5 μM; read-out: TLR7 IC50
T3 construct: host or cells: HEK-Blue cells
T3 sequence (Q9NYK1 27-1049): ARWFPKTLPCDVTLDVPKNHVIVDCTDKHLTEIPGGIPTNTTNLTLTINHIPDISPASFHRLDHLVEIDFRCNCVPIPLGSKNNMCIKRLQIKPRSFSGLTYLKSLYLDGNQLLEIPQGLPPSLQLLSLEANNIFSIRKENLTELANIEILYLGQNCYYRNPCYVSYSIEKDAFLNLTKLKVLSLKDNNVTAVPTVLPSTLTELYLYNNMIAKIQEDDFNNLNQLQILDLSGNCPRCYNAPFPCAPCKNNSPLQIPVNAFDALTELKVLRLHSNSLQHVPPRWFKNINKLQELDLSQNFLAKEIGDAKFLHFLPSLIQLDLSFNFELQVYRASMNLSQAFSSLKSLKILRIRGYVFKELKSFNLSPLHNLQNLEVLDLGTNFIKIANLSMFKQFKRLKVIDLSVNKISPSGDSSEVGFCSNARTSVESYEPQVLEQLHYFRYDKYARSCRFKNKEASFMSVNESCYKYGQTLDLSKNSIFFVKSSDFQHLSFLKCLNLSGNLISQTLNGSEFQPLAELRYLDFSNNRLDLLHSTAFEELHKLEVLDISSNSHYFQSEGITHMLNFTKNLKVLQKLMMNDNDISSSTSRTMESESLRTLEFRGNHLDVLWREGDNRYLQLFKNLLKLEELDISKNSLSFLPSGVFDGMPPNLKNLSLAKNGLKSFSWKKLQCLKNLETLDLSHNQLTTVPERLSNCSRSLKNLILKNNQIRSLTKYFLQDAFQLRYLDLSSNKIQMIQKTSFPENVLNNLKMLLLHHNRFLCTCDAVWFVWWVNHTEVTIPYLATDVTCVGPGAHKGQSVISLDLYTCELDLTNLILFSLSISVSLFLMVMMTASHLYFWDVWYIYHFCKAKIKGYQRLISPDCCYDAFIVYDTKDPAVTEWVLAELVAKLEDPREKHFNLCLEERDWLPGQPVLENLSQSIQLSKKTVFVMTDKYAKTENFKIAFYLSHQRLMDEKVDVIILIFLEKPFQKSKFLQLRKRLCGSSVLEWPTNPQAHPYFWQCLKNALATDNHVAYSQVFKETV
Method in brief: as §1

Structure (SMILES)	IC50 (human TLR8) [nM]	IC50 (human TLR9) [nM]	IC50 (human TLR7) [nM]
Cc1c(-c2[nH]c3sc(N4CCN(CC(C)(C)O)C[C@H]4C)nc3c2C(C)C)cn2ncnc2c1C [Example 325, (R)-1-(4-(5-(7,8-dimethyl-[1,2,4]triazolo[1,5-a]pyridin-6-yl)-6-isopropyl-4H-pyrrolo[3,2-d]thiazol-2-yl)-3-methylpiperazin-1-yl)-2-methylpropan-2-ol]	0.19	> 50000	19
CNCC(=O)N1CCN(c2nc3c(C(C)C)c(-c4cn5ncnc5c(C)c4C)[nH]c3s2)[C@H](C)C1 [Example 326, (R)-1-(4-(5-(7,8-dimethyl-[1,2,4]triazolo[1,5-a]pyridin-6-yl)-6-isopropyl-4H-pyrrolo[3,2-d]thiazol-2-yl)-3-methylpiperazin-1-yl)-2-(methylamino)ethan-1-one]	7.97	17600	5.42
Cc1c(-c2[nH]c3sc(N4CCN(C(=O)CN(C)C)C[C@H]4C)nc3c2C(C)C)cn2ncnc2c1C [Example 327, (R)-1-(4-(5-(7,8-dimethyl-[1,2,4]triazolo[1,5-a]pyridin-6-yl)-6-isopropyl-4H-pyrrolo[3,2-d]thiazol-2-yl)-3-methylpiperazin-1-yl)-2-(dimethylamino)ethan-1-one]	7.11	15800	7.5
Cc1c(-c2[nH]c3sc(N4C[C@@H](C)N(C5COC5)C[C@@H]4C)nc3c2C(C)C)cn2ncnc2c1C [Example 328, 2-((2S,5R)-2,5-dimethyl-4-(oxetan-3-yl)piperazin-1-yl)-5-(7,8-dimethyl-[1,2,4]triazolo[1,5-a]pyridin-6-yl)-6-isopropyl-4H-pyrrolo[3,2-d]thiazole]	12.8	18800	12.9
Cc1c(-c2[nH]c3sc(N4C[C@@H](C)N(C5CCOCC5)C[C@@H]4C)nc3c2C(C)C)cn2ncnc2c1C [Example 329, 2-((2S,5R)-2,5-dimethyl-4-(tetrahydro-2H-pyran-4-yl)piperazin-1-yl)-5-(7,8-dimethyl-[1,2,4]triazolo[1,5-a]pyridin-6-yl)-6-isopropyl-4H-pyrrolo[3,2-d]thiazole]	60.3	14700	414
Cc1c(-c2[nH]c3sc(N4C[C@@H](C)N(C(C)C)C[C@@H]4C)nc3c2C(C)C)cn2ncnc2c1C [Example 330, 5-(7,8-dimethyl-[1,2,4]triazolo[1,5-a]pyridin-6-yl)-6-isopropyl-2-((2S,5R)-4-isopropyl-2,5-dimethylpiperazin-1-yl)-4H-pyrrolo[3,2-d] thiazole]	1.5	11400	8.34
CCN1C[C@H](C)N(c2nc3c(C(C)C)c(-c4cn5ncnc5c(C)c4C)[nH]c3s2)C[C@H]1C [Example 331, 5-(7,8-dimethyl-[1,2,4]triazolo[1,5-a]pyridin-6-yl)-2-((2S,5R)-4-ethyl-2,5-dimethylpiperazin-1-yl)-6-isopropyl-4H-pyrrolo[3,2-d]thiazole]	0.49	6310	4.29
Cc1c(-c2[nH]c3sc(N4C[C@@H](C)N(CC5CC5)C[C@@H]4C)nc3c2C(C)C)cn2ncnc2c1C [Example 332, 2-((2S,5R)-4-(cyclopropylmethyl)-2,5-dimethylpiperazin-1-yl)-5-(7,8-dimethyl-[1,2,4]triazolo[1,5-a]pyridin-6-yl)-6-isopropyl-4H-pyrrolo[3,2-d]thiazole]	1.91	10200	16.9
Cc1c(-c2[nH]c3sc(N4C[C@@H](C)N(C5CCC5)C[C@@H]4C)nc3c2C(C)C)cn2ncnc2c1C [Example 333, 2-((2S,5R)-4-cyclobutyl-2,5-dimethylpiperazin-1-yl)-5-(7,8-dimethyl-[1,2,4]triazolo[1,5-a]pyridin-6-yl)-6-isopropyl-4H-pyrrolo[3,2-d]thiazole]	2.19	37400	34.9
Cc1c(-c2[nH]c3sc(N4C[C@@H](C)N(C(C)C)C[C@@H]4C)nc3c2C(C)C)cn2ncnc2c1C [Example 334, 5-(7,8-dimethyl-[1,2,4]triazolo[1,5-a]pyridin-6-yl)-6-isopropyl-2-((2S,5R)-4-isopropyl-2,5-dimethylpiperazin-1-yl)-4H-pyrrolo[3,2-d]thiazole]	3.19	4830	13.6
CNC(=O)CN1C[C@H](C)N(c2nc3c(C(C)C)c(-c4cn5ncnc5c(C)c4C)[nH]c3s2)C[C@H]1C [Example 336, 2-((2R,5S)-4-(5-(7,8-dimethyl-[1,2,4]triazolo[1,5-a]pyridin-6-yl)-6-isopropyl-4H-pyrrolo[3,2-d]thiazol-2-yl)-2,5-dimethylpiperazin-1-yl)-N-methylacetamide]	39.7	38100	13.5
